| melting point [°C] | SMILES |
| --- | --- |
| 125 | CC(C)(C)OC(=O)C[C@H](NC(=O)c1cccc(NC(=O)Cc2ccc(C(=N)N)cc2)c1)C(=O)N[C@@H](Cc1ccccc1)C(=O)OC(C)(C)C |
| 220 to 222 | NC(=O)[C@@H]1C[C@H](C(=O)O)Nc2cc(Cl)cc(Cl)c21 (relative stereo) |
| 210 to 220 | N#Cc1cc(O)c(O)c(C#N)c1CCC(=O)O |
| 138 to 140 | C=CCN1CC(c2ccc(NC(=O)OCc3ccccc3)cc2F)CCS1(=O)=O (configuration not stated) |
| 69 | CCCN(CCC)C(N)=O |
| 230 | O=C(O)C1CCC2C(=O)N(c3ccccc3)C(=S)N12 (configuration not stated) |
| 227 to 230 | O=C(O)c1cccc(Nc2nc(Oc3ccccc3)nc(Oc3cccc(Cl)c3)n2)c1 |
| 102 to 103 | Cc1nc2c(cc1CO)CCCC2=Cc1ccccc1 |
| 142 | CN(SN1CCOCC1)C(=O)Nc1ccc(Cl)c(Cl)c1 |
| 200 to 201 | C=C(C)c1cc(S(=O)(=O)c2ccc(N)cc2)cc(N2CCCC2)n1 |
| 80 to 81 | CC(C)C(=O)NC1C=CC(CO)C1 (configuration not stated) |
| 246 to 247 | CCc1nnc2nc(-c3ccccc3)ccn12 |
| 150 to 151 | Cc1cc2c(s1)CCCc1cc(=O)n(-c3ccc(Cl)cc3)nc1-2 |
| 98 to 100 | CCOC(=O)c1cn(Cc2cn(-c3ccc(N4CC(CNC(=O)OC)OC4=O)cc3F)nn2)nc1N (configuration not stated) |
| 121 to 122 | CCOP(C)(=O)CC(Cc1ccccc1)NS(=O)(=O)c1ccc(C)cc1 (configuration not stated) |
| 89 to 91 | O=[N+]([O-])c1c(Cl)sc(Cl)c1S(=O)(=O)Cl |
| 212 to 213 | COc1ccc(C(=O)Nc2nnn[nH]2)c(OC(C)C)c1 |
| 135 to 140 | COc1ccc2c(c1)C(C)N(C)C(=O)C2c1cc(OC)c(OC)c(OC)c1 (configuration not stated) |
| 194 | CS(=O)(=O)N1CCN([C@@H](CNC(=O)c2ccc(OCc3ccc(F)cc3)cc2)C(=O)NO)CC1 |
| 182 to 184 | C=CCc1c(O)ccc2c1CCC(=O)N2CC=C(C)C |
| 184 | CCN1CCN([C@](O)(CNC(=O)c2ccc(OCc3cc(C)nc4ccccc34)cc2)C(N)=O)CC1 |
| 86 to 87 | Nc1cc(C(F)(F)C(F)(F)F)no1 |
| 211 | OC1CSC(Oc2cncc(-c3ccc(Cl)nc3)c2)C(O)C1O (configuration not stated) |
| 124 to 126 | Cc1cc([N+](=O)[O-])c(C)c2c1OC(C)(C)C2=O |
| 102 to 104 | CSC(=NC(C)=O)N(C)N=Cc1ccccc1 |

| melting point [°C] | SMILES |
| --- | --- |
| 77 to 78 | Cc1csc(-c2nc(COc3ccc(CCCCn4ccnc4)cc3)co2)c1 |
| 122 | NC(=O)c1ccc2ccccc2c1-c1c(P(=O)(c2ccccc2)c2ccccc2)ccc2ccccc12 |
| 116 to 118 | CN1C(c2cnc3ccccc3c2)c2ccccc2CC1(C)C (configuration not stated) |
| 77 | CC1(Cl)C(=O)N(c2cc(Cl)cc(Cl)c2)N=C1Cl (configuration not stated) |
| 117 | CC1(C)CC(=O)C(Cl)(Cl)C(Cl)C1Br (configuration not stated) |
| 199 to 203 | NS(=O)(=O)c1ccc(-n2nc(C(F)F)cc2C2CCCCC2)cc1 |
| 194 to 196 | CC1=C(C#Cc2ccccc2/C=C/C(C)=C/C(=O)O)C(C)(C)CCC1 |
| 150 to 152 | O=C(O)[C@H](Cc1ccccc1)NS(=O)(=O)c1ccccc1 |
| 122 to 124 | NC(=O)CCC(=O)c1ccccc1 |
| 280 to 284 | CCOC(=O)c1c[nH]c2nc(SCC)c(F)cc2c1=O |
| 128 to 129 | O=[N+]([O-])c1ccc(-n2cccn2)c(F)c1 |
| 117 to 118 | COc1cc2oc(=O)c(CCN3CCC(c4ccccc4)CC3)c(C)c2c(OC)c1OC |
| 159 to 161 | CCOC(=O)c1c[nH]c(=S)n1C1CCc2c(F)cc(F)cc2C1 (configuration not stated) |
| 89 to 91 | Cc1cc(C)cc(C(OC(C)C(c2ccccc2)c2ccccc2)N(C)C(=O)c2ccccc2)c1 (configuration not stated) |
| 191 to 193 | O=S(=O)(Cl)c1ccc2oc3cc(Br)ccc3c2c1 |
| 166 to 173 | O=C(O)c1c([N+](=O)[O-])ccc2c1OCO2 |
| 198 to 200 | CN1C(=O)N2C(=NC1(C)C)N(C(=O)Nc1ccc(Cl)c(Cl)c1)c1ccccc12 |
| 231 to 232 | O=C(c1ccccc1)N1CCC2(CCc3c2[nH]c2ccccc32)CC1 |
| 244 to 250 | CC(O)Cn1cnc2c(=O)[nH]cnc21 (configuration not stated) |
| 127 to 129 | CCCC(C=NNC(=O)OCC)c1ccc(Cl)cc1Cl (configuration not stated) |
| 140 | CCCCCCCCCCCCCCCCCCOC(=O)c1ccc(C(=O)OCCCCCCCCCCCCCCCCCC)cc1 |
| 182 to 185 | c1cn(Cc2nc(-c3ccc4c(c3)OCO4)c3cc4c(cc3n2)OCO4)cn1 |
| 197 to 199 | FC(F)(F)Oc1ccc2[nH]c(-c3cccnc3)nc2c1 |
| 126 | O=C(NO)[C@H](CNS(=O)(=O)c1ccc(OCc2ccccc2)cc1)N1CCCCC1 |
| 232 to 236 | CCN1CCN(C/C=C/c2ccc3c(Nc4ccc(Sc5nccn5C)c(Cl)c4)c(C#N)cnc3c2)CC1 |

| melting point [°C] | SMILES |
| --- | --- |
| 109 to 111 | CN1CCN(C(=NNc2ccccc2Cl)c2ccccc2F)CC1 |
| 127 to 130 | Cc1ccccc1Nc1nc(NCc2ccccc2)nc2ccccc12 |
| 88 to 89 | CCCCC[C@H](CC(=O)Nc1c(F)cc(F)cc1F)c1cccc2c1OCO2 |
| 191 | COC(=O)C1=C(C)NC(C)=C(c2ccccc2)C1c1cccc(Cl)c1 (configuration not stated) |
| 79 to 82 | CCOC(=O)CC[C@H](NC(=O)c1ccc(N)c(C)c1)C(=O)OCC |
| 224 to 226 | O=C(O)CCc1oc(-n2cnc3ccccc32)nc1-c1ccc(C(F)(F)F)cc1 |
| 210 to 212 | CCn1cc(C=CC(N)=O)c([N+](=O)[O-])n1 |
| 156 to 162 | Clc1ccc(C2=NNCC2c2ccccc2)cc1 (configuration not stated) |
| 119 to 120 | CC(=O)N1CCC(CCC(=O)c2cc3c4c(c2)CC(=O)N4CCC3)CC1 |
| 52 | CC(C)(C)[Si](C)(C)O[C@H]1CCC[C@@]2(C)[C@H]1CC[C@@H]2[C@]1(C)CC(=O)CO1 |
| 113 to 114 | CC(=O)N[C@@H](Cc1cn(Cc2ccccc2)cn1)C(=O)OCc1ccccc1 |
| 95 to 97 | CCOc1ccccc1OC(Cc1ccccc1)C1=NCCN1 (configuration not stated) |
| 77 to 81 | CN(C)CCCOc1cccc(N(C(=O)c2ccccc2)c2ccccc2)c1 |
| 140 to 142 | C=CCOc1ccc(S(=O)(=O)c2ccc(OCC=C)cc2)cc1 |
| 100 | O=[N+]([O-])c1cccnc1NCc1cccs1 |
| > 300 | COc1c(-c2ccc3cc(NS(C)(=O)=O)ccc3c2)cc(-n2ccc(=O)[nH]c2=O)cc1C(C)(C)C(=O)O |
| 246 | CC(C)(C)NC(=O)NC(C)(C)C |
| 111 to 114 | c1ccc2c(c1)CCc1cccnc1C2C1CCNCC1 (configuration not stated) |
| 145 to 148 | CCc1nc2c(cnn2CC)c(NC2CCOCC2)c1CNC(=O)c1cccc(C(=O)NCc2ccc(F)c(-c3cccc(CN4CCCNCC4)c3)c2)c1 |
| 183 to 185 | COCc1nc2c(N)nc3ccccc3c2s1 |
| 102 to 104 | O=C(CC1CSCCC1=O)c1ccccc1 (configuration not stated) |
| 78 to 83 | Cn1cc(C(=O)NCCCO)c(Nc2ccc(Br)cc2F)cc1=O |
| 175 to 177 | CN1CCN(c2ccc(S(=O)(=O)Oc3cccc(F)c3)cc2)C1=O |
| 154 to 156 | CN1CCN(C2=Nc3cc(Cl)ccc3N3CCc4cccc2c43)CC1 |
| 98 | COCCCNC1(c2ccccc2Cl)C(=O)N(S(=O)(=O)c2ccc3c(c2)CCN3C(=O)OC)c2ccc(Cl)cc21 (configuration not stated) |

| melting point [°C] | SMILES |
| --- | --- |
| 91 to 93 | O=C(Cc1ccc(F)cc1)c1ccc(F)cc1 |
| 81 | Cc1nn(C(=O)NC(C)C)c(=O)n1C |
| 78 to 79 | COc1cc2c(cc1OCc1ccccc1)CCN(Cc1cccc(O[Si](C(C)C)(C(C)C)C(C)C)c1)C2 |
| 206 to 208 | COc1cn(-c2ccc(-c3ccccn3)cc2F)nc(-c2ccnn2-c2ccccc2)c1=O |
| 183 to 184 | CN1CCN(C2=Nc3cc(Br)ccc3Nc3nn(C)nc32)CC1 |
| 109 to 110 | c1ccc(Nn2ccc3ccccc32)nc1 |
| 158 | Cc1csc2ccc3[nH]c4c(c3c12)CN(CCCC(c1ccc(F)cc1)c1ccc(F)cc1)CC4 |
| 86 to 87 | CCC(=O)Oc1c(OC)c(OC)c(OC(C)=O)c2ccc(Cl)cc12 |
| 234 to 235 | O=C(NOCc1ccccc1)c1ccc(CNC(=O)c2cn3c4c(cccc24)CCC3)cc1 |
| 187 to 188 | CCc1c(C#N)c(-c2ccc(C#N)cc2)c(C)n1Cc1cnc(Cl)c(COC(=O)CCC(=O)O)c1 |
| 230 to 232 | Nc1nc2c(s1)CC(N1CCN(c3ccccn3)CC1)CC2 (single isomer, unassigned; (-)) |
| 58 | CC(C(=O)CCc1ccc(OC(F)(F)F)cc1)n1cncn1 (configuration not stated) |
| 166 | NC(=O)C(N)c1c(Cl)cccc1Cl (configuration not stated) |
| > 200 | C=CCn1c(NCc2cccnc2)nc(N2CCc3ccccc3CC2)c(C#N)c1=O |
| 106 to 107 | CCOC(=O)C(=CNC1CC1)C(=O)c1c(F)cc(Cl)c(F)c1Cl |
| 201 to 204 | O=C(CN1CCCC1)NCc1ccc2c(c1)-c1[nH]nc(-c3ccsc3)c1C2 |
| 208 to 210 | CN1C(=O)C(C)(C)C(=O)Nc2cc(C=O)ccc21 |
| 168 to 169 | Cc1cc(N2CCc3ncccc3C2)nc(N2CCC(F)(F)CC2)c1[N+](=O)[O-] |
| 196 to 197 | CCC(C)(C)Nc1c(NCc2ccc(Cl)cc2Cl)c(=O)c1=O |
| 137 to 138 | CC(C)(C)OC(=O)COc1cc2cc(C(C)(C)O)sc2c(Cl)c1Cl |
| 201 to 202 | O=C(Nc1ccccc1)c1nc2ccccc2[nH]1 |
| 170 | CN1CCC(OC(c2ccccc2)c2nc3cccc(O)c3[nH]2)CC1 (configuration not stated) |
| 199 | O=C1OCCN1c1ccc2cc[nH]c2c1 |

| SMILES | melting point [°C] |
| --- | --- |
| O=C(Nc1ccccc1)ONC1=Nc2ccc(Cl)cc2C(c2ccccc2)=NC1 | 215 to 217 |
| CN1Cc2c(-c3noc(CNC4CC4)n3)ncn2-c2ccc(F)cc2C1=O | 176 to 178 |
| N#CC1CN1C(=O)c1ccco1 (configuration not stated) | 73 to 76 |
| COC(=O)[C@@H]1C[C@@H](Br)C(=O)[C@@H]2[C@@]3(C)C[C@@H](c4ccoc4)OC(=O)[C@H]3CC[C@]21C | 170 to 173 |
